# Read-outs that look alike come from different tables or passages of the source.
# What was measured:
# Plasma stability [1] = type: in vitro ADME; conditions: cynomolgus monkey plasma, after 120 min of incubation
# CYP 1A2 = CYP 1A2 (Homo sapiens, UniProt P05177); assay: CYP inhibition (direct); type: in vitro ADME; conditions: CYP 1A2, direct inhibition
# Text: (§1) Fig. S8. Preclinical data of PRG-A-04 a Plasma protein binding b CYP inhibition(direct) […]
# (§2) d Mouse Brain Tissue penetration
# (§3) For the convenience of calculation, […]
# [2] = system: MT-SOD1 inclusions in SK-N-SH cells; assay: SOD1 inclusions by immunofluorescence in SK-N-SH cells; type: cell-based; conditions: SK-N-SH cells expressing MT-SOD1, 24 h
# Procedure: Cells on coverslips were washed with PBS, fixed with 4% PFA for 30 min at room temperature and then permeabilized in 0.1% Triton X-100/PBS for 10 min. After incubation in blocking solution (goat serum diluted 1:200 in PBS) for 1 h, cells were incubated with primary antibodies in blocking buffer for overnight at 4 °C. Finally, the cells were incubated with FITC- or Rhodamine-conjugated secondary antibody at 4 °C for 4 h. The nucleus was stained with 4, 6-diamidino-2-phenylindole and the endoplasmic reticulum (ER) was stained using the ER-Tracker Red dye for 10 min. Cells were washed three times with PBS, then the coverslips were mounted with the mounting solution (H-5501; Vector Laboratories, Burlingame, CA) and observed by fluorescence microscopy using Zeiss Apotome 2 (Software; Axiovision 4.8, Baden-Württemberg, Germany) and CELENA X (Logos Biosystems, Annandale, VA).
# Cells with SOD1 aggregation were counted in the fluorescent images. Depending on the intensity of SOD1, cells with SOD1 aggregates were counted in randomly selected fields and quantified as a percentage to the total cells counted. In addition, to calculate the colocalization of the three colors of SOD1, we counted the cells where the three colored images overlapped at a point of high intensity. […]
# Fig. S1. […] After incubation, cells were fixed with 4 % PFA and observed under the fluorescence microscope. […]
# TDP-43 and WT-SOD1 = assay: WT-SOD1 and TDP-43 aggregation induced by ectopic TDP-43 expression in SK-N-SH cells; type: cell-based; conditions: TDP-43 overexpression
# Text: Cells with SOD1 inclusions (white arrows; strong intensity of SOD1) were counted and the percentages are shown with standard deviation. n = 3 independent experiments; two-tailed Student’s t-test. Scale bar, 10 μm. d, e PRG-A-04 reduced misfolding of MT-SOD1. d The affinity of misfolding-specific antibody to MT-SOD1 was inhibited by PRG-A-04. e Quantification of band intensity with Image J software. Mean ± SD. A.U., arbitrary units. *P < 0.05, **P < 0.01. f PRG-A-04 reduced the MT-SOD1 recombinant protein-induced increase of self-oligomerization in vitro. g WT-SOD1 and TDP-43 oligomerization induced by ectopic TDP-43 expression was abolished by PRG-A-04 treatment. h–k WT-SOD1 aggregation induced by ectopic TDP-43 expression was reduced by PRG-A-04 treatment. […] Scale bars, 10 μm. i PRG-A-04 reduced WT-SOD1 inclusions triggered by TDP-43 overexpression. Inclusion-positive cells (white arrows in h, strong intensity of SOD1) were counted and the percentages are shown as mean ± SD. j PRG-A-04 reduced the ratio of cells with cytoplasmic TDP-43 inclusions to tdtomato-positive ones. Cells with cytoplasmic TDP-43 (white arrows) among tdtomato positive ones were counted in randomly selected fields by photomicrographs and the cytosol/nucleus ratio was shown with ± SD. k PRG-A-04 reduced cytoplasmic TDP-43 inclusion. Mean ± SD. *P < 0.05, **P < 0.01, ***P < 0.005 […]
# CYP 3A = assay: CYP inhibition (direct)
# Text: as §1, §2, §3
# [3] = system: MT-SOD1 recombinant protein; assay: In vitro oligomerization of recombinant GST-SOD1 (non-denaturing); type: biochemical; conditions: GST-SOD1 4 μg/mL, PRG-A-04 10 μmol/L, 30 min, room temperature
# Procedure: For detecting the oligomerization assay promoted by mutant-type (MT)-SOD1 recombinant proteins in vitro, GST-SOD1 recombinant protein (4 μg/mL) was incubated with PRG-A-04 (10 μmol/L) for 30 min at room temperature in PBS and the samples were mixed with non-denaturing sample buffer. Those were separated in SDS-PAGE gel without boiling.
# Plasma stability [4] = type: in vitro ADME; conditions: CD-1 mouse plasma, after 120 min of incubation
# Sequence of CYP 1A2 (P05177 whole entry): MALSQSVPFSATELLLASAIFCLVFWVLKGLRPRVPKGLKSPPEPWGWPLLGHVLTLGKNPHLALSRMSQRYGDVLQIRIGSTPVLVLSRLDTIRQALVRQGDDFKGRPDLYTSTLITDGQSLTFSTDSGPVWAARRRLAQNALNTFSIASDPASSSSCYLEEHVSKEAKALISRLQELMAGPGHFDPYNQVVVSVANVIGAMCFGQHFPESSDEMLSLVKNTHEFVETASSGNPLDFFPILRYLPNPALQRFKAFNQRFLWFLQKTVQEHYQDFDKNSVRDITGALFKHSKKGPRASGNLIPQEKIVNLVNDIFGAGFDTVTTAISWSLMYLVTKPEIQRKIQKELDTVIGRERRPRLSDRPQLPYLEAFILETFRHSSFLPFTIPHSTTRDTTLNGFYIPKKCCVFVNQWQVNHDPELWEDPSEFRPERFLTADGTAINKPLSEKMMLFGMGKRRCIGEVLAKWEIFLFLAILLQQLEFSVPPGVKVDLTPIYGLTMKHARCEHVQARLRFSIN
compound,measurement,setting,value
COc1cc(C=CCOC2Cc3cc4ccc(=O)oc4cc3OC2(C)C)ccc1[N+](=O)[O-] (stereo not drawn) [PRG-A-04],stability in plasma,Plasma stability [1],stable
same,IC50,CYP 1A2,> 10 µM
same,effect on SOD1 inclusions,[2],suppressed SOD1 inclusions
same,cytosolic mislocalization of TDP-43,TDP-43 and WT-SOD1,significantly reduced
same,effect on TDP-43 and SOD1 aggregation,TDP-43 and WT-SOD1,inhibitory effect on TDP-43 and SOD1 aggregation
same,IC50,CYP 3A,> 10 µM
same,IC50,"CYP 3A; read-out: IC50, DI, CYP 3A(midazolam), direct inhibition",> 10 µM
same,effect on oligomerization of recombinant MT-SOD1 in vitro,[3],inhibited the oligomerizing or aggregation property of MT-SOD1
same,stability in plasma,Plasma stability [4],stable
